What was measured:
Histamine H3 receptor [1] = biological target: T1, Histamine H3 receptor (Homo sapiens, UniProt Q9Y5N1); experiment: Displacement of [3H]NAMH from human histamine H3 receptor expressed in CHO cells; assay type: cell-based
Histamine H3 receptor [2] = biological target: Histamine H3 receptor (Rattus norvegicus, UniProt Q9QYN8); experiment: Displacement of [3H]NAMH from rat histamine H3 receptor expressed in CHO cells; assay type: cell-based
Cytochrome P450 2D6 = Cytochrome P450 2D6 (Homo sapiens, UniProt P10635); experiment: Inhibition of CYP2D6; assay type: ADME
Histamine H3 receptor [3] = biological target: T1, Histamine H3 receptor; experiment: Inverse agonist activity at human histamine H3 receptor by [35S]GTPgammaS binding assay; assay type: functional
Rattus norvegicus [4] = experiment: (§1) Half life in rat at 1 mg/kg, iv; assay type: ADME, organism-based; parameters: dose 1 mg/kg, route intravenous; conditions: in vivo
Cytochrome P450 1A2 = biological target: T2, Cytochrome P450 1A2 (Homo sapiens, UniProt P05177); experiment: Inhibition of CYP1A2; assay type: ADME
T2 sequence (P05177 whole entry): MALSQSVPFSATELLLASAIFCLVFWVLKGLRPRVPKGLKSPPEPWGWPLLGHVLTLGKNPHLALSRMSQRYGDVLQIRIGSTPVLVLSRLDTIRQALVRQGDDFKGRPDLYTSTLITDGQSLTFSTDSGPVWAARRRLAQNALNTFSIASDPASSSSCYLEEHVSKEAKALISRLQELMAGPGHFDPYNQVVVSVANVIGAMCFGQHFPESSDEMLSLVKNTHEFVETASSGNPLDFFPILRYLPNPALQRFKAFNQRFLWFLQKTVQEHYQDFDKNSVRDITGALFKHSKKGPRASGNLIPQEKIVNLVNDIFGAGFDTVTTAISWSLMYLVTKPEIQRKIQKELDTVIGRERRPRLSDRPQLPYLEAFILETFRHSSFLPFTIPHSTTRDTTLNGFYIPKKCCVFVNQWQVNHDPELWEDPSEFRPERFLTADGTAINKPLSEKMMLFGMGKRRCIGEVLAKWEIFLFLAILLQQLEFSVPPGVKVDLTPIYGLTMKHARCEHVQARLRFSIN

Rattus norvegicus [5] = experiment: (§2) Cmax in rat at 5 mg/kg, po; assay type: ADME, organism-based; parameters: dose 5 mg/kg, route oral; conditions: in vivo
Rattus norvegicus [6] = experiment: (§3) Oral bioavailability in rat at 5 mg/kg; assay type: ADME, organism-based; conditions: in vivo
Rattus norvegicus [7] = experiment: (§4) AUC in rat at 5 mg/kg, po; assay type: ADME, organism-based, Plasma; parameters: dose 5 mg/kg, route oral; conditions: in vivo
[8] = Ratio of drug level in brain to plasma in rat at 10 mg/kg, ip after 6 hrs; assay type: ADME, organism-based; parameters: dose 10 mg/kg, route intraperitoneal; conditions: for Kp at 6 h: brain/plasma, read-out: BPR
Cytochrome P450 2C9 = Cytochrome P450 2C9 (Homo sapiens, UniProt P11712); experiment: Inhibition of CYP2C9; assay type: ADME
Cytochrome P450 3A4 = Cytochrome P450 3A4 (Homo sapiens, UniProt P08684); experiment: Inhibition of CYP3A4; assay type: ADME
Cytochrome P450 2C19 = Cytochrome P450 2C19 (Homo sapiens, UniProt P33261); experiment: Inhibition of CYP2C19; assay type: ADME
Rattus norvegicus [9] = experiment: (§5) Volume of distribution in rat at 1 mg/kg, iv; assay type: ADME, organism-based; parameters: dose 1 mg/kg, route intravenous; conditions: in vivo
Histamine H3 receptor [10] = biological target: T1, Histamine H3 receptor; experiment: Antagonist activity at human histamine H3 receptor by [35S]GTPgammaS binding assay; assay type: functional
[11] = Clearance in rat at 1 mg/kg, iv; assay type: ADME, organism-based; parameters: dose 1 mg/kg, route intravenous; conditions: in vivo
[12] = Half life in human liver microsomes; assay type: ADME, Microsome
[13] = as §1; assay type: ADME, organism-based; parameters: dose 1 mg/kg, route intravenous; conditions: in vivo
[14] = as §2; assay type: ADME, organism-based; parameters: dose 5 mg/kg, route oral; conditions: in vivo
[15] = as §3; assay type: ADME, organism-based; conditions: in vivo
[16] = Half life in mouse liver microsomes; assay type: ADME, Microsome
[17] = Solubility of the compound in water at pH 7.4; assay type: physicochemical
[18] = Half life in dog liver microsomes; assay type: ADME, Canis lupus familiaris, Microsome
Rattus norvegicus [19] = experiment: Inhibition of RAMH-induced dipsogenia in po dosed rat; assay type: functional
[20] = biological target: T3, Muscarinic acetylcholine receptor M2 (Homo sapiens) (UniProt P08172); experiment: Inhibition of muscarinic M2 receptor at 10 uM
T3 sequence (whole entry): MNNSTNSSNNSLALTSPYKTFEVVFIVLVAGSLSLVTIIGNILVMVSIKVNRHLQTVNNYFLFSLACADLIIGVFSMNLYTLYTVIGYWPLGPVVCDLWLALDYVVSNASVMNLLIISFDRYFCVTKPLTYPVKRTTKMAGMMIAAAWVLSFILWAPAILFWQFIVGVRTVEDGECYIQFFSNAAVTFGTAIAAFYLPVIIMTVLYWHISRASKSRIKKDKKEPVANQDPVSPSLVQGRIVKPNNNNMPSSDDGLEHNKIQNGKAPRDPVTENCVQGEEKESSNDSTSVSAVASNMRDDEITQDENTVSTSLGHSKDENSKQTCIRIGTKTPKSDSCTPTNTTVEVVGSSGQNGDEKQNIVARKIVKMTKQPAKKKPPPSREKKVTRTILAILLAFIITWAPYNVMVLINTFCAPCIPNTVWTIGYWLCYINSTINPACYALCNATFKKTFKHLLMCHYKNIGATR

[21] = as §4; assay type: ADME, organism-based, Plasma; parameters: dose 5 mg/kg, route oral; conditions: plasma
[22] = Solubility of the compound in water at pH 2; assay type: physicochemical
[23] = Half life in monkey liver microsomes; assay type: ADME, Macaca mulatta, Microsome; conditions: rhesus monkey
[24] = Drug uptake in rat brain at 5 mg/kg, po after 6 hrs; assay type: ADME, organism-based; parameters: dose 5 mg/kg, route oral; conditions: read-out: Drug uptake
[25] = Half life in rat liver microsomes; assay type: ADME, Microsome
[26] = Apparent permeability of the compound in human Caco2 cells; assay type: ADME, cell-based; conditions: Caco-2
[27] = as §5; assay type: ADME, organism-based; parameters: dose 1 mg/kg, route intravenous; conditions: in vivo

Cytochrome P450 2C19, sequence (P33261 whole entry): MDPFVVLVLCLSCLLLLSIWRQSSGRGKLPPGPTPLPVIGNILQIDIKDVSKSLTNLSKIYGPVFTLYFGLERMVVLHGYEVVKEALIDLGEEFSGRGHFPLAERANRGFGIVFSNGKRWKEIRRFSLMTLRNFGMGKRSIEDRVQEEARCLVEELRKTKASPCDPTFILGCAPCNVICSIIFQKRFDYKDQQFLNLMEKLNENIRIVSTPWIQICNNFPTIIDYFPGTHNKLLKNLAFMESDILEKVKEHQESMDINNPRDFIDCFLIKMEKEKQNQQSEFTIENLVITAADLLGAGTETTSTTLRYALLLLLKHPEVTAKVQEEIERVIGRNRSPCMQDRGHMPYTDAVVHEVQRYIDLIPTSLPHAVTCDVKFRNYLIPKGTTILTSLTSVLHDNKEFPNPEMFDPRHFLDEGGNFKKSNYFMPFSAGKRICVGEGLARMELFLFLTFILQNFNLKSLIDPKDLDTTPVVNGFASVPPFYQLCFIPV
T1 sequence (Q9Y5N1 whole entry): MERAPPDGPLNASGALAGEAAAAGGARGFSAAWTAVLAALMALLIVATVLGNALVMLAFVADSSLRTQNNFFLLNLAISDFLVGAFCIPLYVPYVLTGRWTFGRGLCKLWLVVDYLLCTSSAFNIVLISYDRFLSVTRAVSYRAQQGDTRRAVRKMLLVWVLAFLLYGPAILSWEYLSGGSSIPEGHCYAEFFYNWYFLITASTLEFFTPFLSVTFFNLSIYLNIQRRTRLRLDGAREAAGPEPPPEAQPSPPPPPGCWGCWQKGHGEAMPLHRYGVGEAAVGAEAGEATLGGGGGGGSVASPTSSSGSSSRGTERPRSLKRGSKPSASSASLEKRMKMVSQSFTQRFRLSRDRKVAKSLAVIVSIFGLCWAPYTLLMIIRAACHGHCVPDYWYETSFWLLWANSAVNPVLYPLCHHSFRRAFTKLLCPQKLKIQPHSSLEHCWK
Histamine H3 receptor (Rattus norvegicus, UniProt Q9QYN8), sequence (Q9QYN8 whole entry): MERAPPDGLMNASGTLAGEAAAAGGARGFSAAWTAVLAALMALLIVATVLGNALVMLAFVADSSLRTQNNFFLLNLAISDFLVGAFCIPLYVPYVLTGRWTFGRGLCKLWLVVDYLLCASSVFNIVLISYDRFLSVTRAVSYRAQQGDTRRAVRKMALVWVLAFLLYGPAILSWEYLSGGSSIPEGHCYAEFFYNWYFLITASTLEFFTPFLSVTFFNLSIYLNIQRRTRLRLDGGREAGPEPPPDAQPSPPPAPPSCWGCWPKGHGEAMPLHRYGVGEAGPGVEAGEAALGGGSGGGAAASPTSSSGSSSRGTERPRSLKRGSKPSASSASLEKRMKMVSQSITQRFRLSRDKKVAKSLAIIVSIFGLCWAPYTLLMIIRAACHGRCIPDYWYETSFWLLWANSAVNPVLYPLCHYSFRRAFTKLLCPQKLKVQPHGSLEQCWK
Cytochrome P450 2C9, sequence (P11712 whole entry): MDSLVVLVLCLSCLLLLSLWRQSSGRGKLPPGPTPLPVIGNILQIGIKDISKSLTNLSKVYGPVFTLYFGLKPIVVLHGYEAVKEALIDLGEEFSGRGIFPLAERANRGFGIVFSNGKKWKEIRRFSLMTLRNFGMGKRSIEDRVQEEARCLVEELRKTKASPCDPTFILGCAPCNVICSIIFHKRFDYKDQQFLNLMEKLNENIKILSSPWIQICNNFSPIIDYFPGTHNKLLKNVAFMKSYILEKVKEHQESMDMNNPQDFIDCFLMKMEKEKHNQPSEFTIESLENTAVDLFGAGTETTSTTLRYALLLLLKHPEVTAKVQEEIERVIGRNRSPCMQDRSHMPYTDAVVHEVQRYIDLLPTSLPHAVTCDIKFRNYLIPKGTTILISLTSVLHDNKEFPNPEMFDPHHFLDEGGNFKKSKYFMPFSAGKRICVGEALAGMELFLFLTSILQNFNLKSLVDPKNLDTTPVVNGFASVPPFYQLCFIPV
Cytochrome P450 2D6, sequence (P10635 whole entry): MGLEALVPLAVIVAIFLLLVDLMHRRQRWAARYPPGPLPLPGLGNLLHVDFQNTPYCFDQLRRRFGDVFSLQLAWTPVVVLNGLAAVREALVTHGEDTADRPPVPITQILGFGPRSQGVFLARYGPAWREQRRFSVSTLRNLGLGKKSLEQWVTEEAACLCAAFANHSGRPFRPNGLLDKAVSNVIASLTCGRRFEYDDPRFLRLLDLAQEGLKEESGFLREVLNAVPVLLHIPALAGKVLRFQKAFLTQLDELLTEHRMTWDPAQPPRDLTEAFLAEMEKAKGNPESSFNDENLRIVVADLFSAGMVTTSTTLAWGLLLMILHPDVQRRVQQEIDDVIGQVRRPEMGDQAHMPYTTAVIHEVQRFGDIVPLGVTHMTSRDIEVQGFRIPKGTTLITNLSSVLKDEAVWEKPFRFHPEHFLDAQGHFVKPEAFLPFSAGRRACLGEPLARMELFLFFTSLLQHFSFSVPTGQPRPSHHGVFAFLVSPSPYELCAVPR
Cytochrome P450 3A4, sequence (P08684 whole entry): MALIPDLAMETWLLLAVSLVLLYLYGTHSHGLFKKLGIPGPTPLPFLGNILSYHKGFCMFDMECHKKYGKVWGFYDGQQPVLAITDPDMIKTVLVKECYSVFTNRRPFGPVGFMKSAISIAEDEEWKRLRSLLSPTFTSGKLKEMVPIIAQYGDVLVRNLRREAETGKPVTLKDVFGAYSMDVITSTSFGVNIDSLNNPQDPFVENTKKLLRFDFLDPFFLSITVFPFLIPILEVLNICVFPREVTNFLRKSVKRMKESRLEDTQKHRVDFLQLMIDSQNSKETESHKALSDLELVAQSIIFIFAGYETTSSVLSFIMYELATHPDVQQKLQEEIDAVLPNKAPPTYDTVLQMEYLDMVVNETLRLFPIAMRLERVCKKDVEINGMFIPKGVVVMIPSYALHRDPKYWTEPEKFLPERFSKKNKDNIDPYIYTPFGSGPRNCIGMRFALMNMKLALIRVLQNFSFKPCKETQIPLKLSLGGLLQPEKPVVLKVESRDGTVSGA

C[C@@H]1CCCN1CCCOc1ccc(C2=NN(Cc3ccccc3)C(=O)CC2)cc1
Ki (Histamine H3 receptor [1]): 2 nM | Ki (Histamine H3 receptor [2]): 25 nM

O=C1CCC(c2ccc(OCCCN3CCCCC3)cc2)=NN1CC(F)(F)F
Ki (Histamine H3 receptor [1]): 38 nM | Ki (Histamine H3 receptor [2]): 62 nM

C[C@@H]1CCCN1CCCOc1ccc(C2=NN(c3ccccc3)C(=O)CC2)cc1
Ki (Histamine H3 receptor [1]): 10 nM | Ki (Histamine H3 receptor [2]): 16 nM

C[C@@H]1CCCN1CCCOc1ccc(C2=NNC(=O)CC2c2ccccn2)cc1 (mixture of isomers)
Ki (Histamine H3 receptor [1]): 9.9 nM | Ki (Histamine H3 receptor [2]): 21 nM

C[C@@H]1CCCN1CCCOc1ccc(C2=NNC(=O)CC2(C)C)cc1
Ki (Histamine H3 receptor [1]): 20 nM | Ki (Histamine H3 receptor [2]): 59 nM

CC(C)N1N=C(c2ccc(OCCCN3CCC[C@H]3C)cc2)CCC1=O
Ki (Histamine H3 receptor [1]): 9 nM | Ki (Histamine H3 receptor [2]): 63 nM

C[C@@H]1CCCN1CCCOc1ccc(C2=NN(CC(F)(F)F)C(=O)CC2)cc1
Ki (Histamine H3 receptor [1]): 5 nM | Ki (Histamine H3 receptor [2]): 10 nM

O=C1CCC(c2ccc(OCCCN3CCCC3)cc2)=NN1
Ki (Histamine H3 receptor [1]): 74 nM | Ki (Histamine H3 receptor [2]): 256 nM

C[C@@H]1CCCN1CCCOc1ccc(C2=NN(C)C(=O)CC2)cc1
Ki (Histamine H3 receptor [1]): 5 nM | Ki (Histamine H3 receptor [2]): 16 nM

CC1CC(=O)NN=C1c1ccc(OCCCN2CCCCC2)cc1 (racemic)
Ki (Histamine H3 receptor [1]): 21 nM | Ki (Histamine H3 receptor [2]): 28 nM

CC1CC(c2ccc(OCCCN3CCC[C@H]3C)cc2)=NNC1=O (mixture of isomers)
Ki (Histamine H3 receptor [1]): 1.9 nM | Ki (Histamine H3 receptor [2]): 4 nM

CC1CC(=O)NN=C1c1ccc(OCCCN2CCC[C@H]2C)cc1 (single isomer, unassigned; isomer 2) [listing 1 of 2 here]
IC50 (Cytochrome P450 2D6): > 30 µM | EC50 (Histamine H3 receptor [3]): 1.4 nM | t1/2 (Rattus norvegicus [4]): 1.5 h | Ki (Histamine H3 receptor [1]): 4.7 nM | IC50 (Cytochrome P450 1A2): > 30 µM | Cmax (Rattus norvegicus [5]): 274 ng/mL | F (Rattus norvegicus [6]): 52% | AUC (Rattus norvegicus [7]): 1327 ng·h/mL | BPR ([8]; brain, 6 h): 1.9 | IC50 (Cytochrome P450 2C9): > 30 µM | Ki (Histamine H3 receptor [2]): 20 nM | IC50 (Cytochrome P450 3A4): > 30 µM | IC50 (Cytochrome P450 2C19): > 30 µM | Vd (Rattus norvegicus [9]): 3.4 L/kg

CC1CC(=O)NN=C1c1ccc(OCCCN2CCCC2)cc1 (racemic)
Ki (Histamine H3 receptor [1]): 83 nM | Ki (Histamine H3 receptor [2]): 85 nM

CC1CC(=O)NN=C1c1ccc(OCCCN2CCC[C@H]2C)cc1 (single isomer, unassigned; isomer 2) [listing 2 of 2 here]
Kb (Histamine H3 receptor [10]): 0.54 nM

C[C@@H]1CCCN1CCCOc1ccc(C2=NNC(=O)CC2)cc1
IC50 (Cytochrome P450 2D6): > 11 µM | EC50 (Histamine H3 receptor [3]): 0.7 nM | clearance [11]: 8.5 mL/min/kg | half-life [12]: > 40 min | half-life [13]: 66 min | Ki (Histamine H3 receptor [1]): 3.2 nM | IC50 (Cytochrome P450 1A2): > 30 µM | Cmax [14]: 376 ng/mL | bioavailability [15]: 19% | half-life [16]: > 40 min | solubility [17]: > 2000 µg/mL | half-life [18]: > 40 min | ED50 (Rattus norvegicus [19]): 0.06 mg/kg | inhibition (Rattus norvegicus [19]): Dose-dependent effect | inhibition [20]: 60% | AUC [21]: 1830 ng·h/mL | Kp at 6 h [8]: 3.1 | solubility [22]: > 2000 µg/mL | half-life [23]: > 40 min | concentration at 6 h [24]: 2200 nM | IC50 (Cytochrome P450 2C9): > 30 µM | half-life [25]: > 40 min | Ki (Histamine H3 receptor [2]): 8.8 nM | IC50 (Cytochrome P450 3A4): > 11 µM | Papp [26]: 11.4 ×10⁻⁶ cm/s | IC50 (Cytochrome P450 2C19): > 30 µM | Vd [27]: 0.8 L/kg

C[C@H]1CCCN1CCCOc1ccc(C2=NNC(=O)CC2)cc1
Ki (Histamine H3 receptor [1]): 37 nM | Ki (Histamine H3 receptor [2]): 114 nM

CC1CC(=O)NN=C1c1ccc(OCCCN2CCC[C@H]2C)cc1 (stereo in doubt; 19a) [listing 1 of 2 here]
Kb (Histamine H3 receptor [10]): 0.68 nM

C[C@@H]1CCCN1CCCOc1ccc(C2=NNC(=O)C(c3ccccn3)C2)cc1 (mixture of isomers)
Ki (Histamine H3 receptor [1]): 8.8 nM | Ki (Histamine H3 receptor [2]): 42 nM

C[C@@H]1CCCN1CCCOc1ccc(C2=NN(c3ccccn3)C(=O)CC2)cc1
Ki (Histamine H3 receptor [1]): 12 nM | Ki (Histamine H3 receptor [2]): 42 nM

CC1CC(=O)NN=C1c1ccc(OCCCN2CCC[C@H]2C)cc1 (mixture of isomers)
Ki (Histamine H3 receptor [1]): 5.6 nM | Ki (Histamine H3 receptor [2]): 18 nM

CC1CC(=O)NN=C1c1ccc(OCCCN2CCC[C@H]2C)cc1 (stereo in doubt; 19a) [listing 2 of 2 here]
IC50 (Cytochrome P450 2D6): > 30 µM | EC50 (Histamine H3 receptor [3]): 1.3 nM | half-life [12]: > 40 min | half-life [13]: 108 min | Ki (Histamine H3 receptor [1]): 6.8 nM | IC50 (Cytochrome P450 1A2): > 30 µM | Cmax [14]: 301 ng/mL | bioavailability [15]: 40% | half-life [16]: > 40 min | half-life [18]: > 40 min | AUC [21]: 1360 ng·h/mL | Kp at 6 h [8]: 1.8 | half-life [23]: > 40 min | IC50 (Cytochrome P450 2C9): > 30 µM | half-life [25]: > 40 min | Ki (Histamine H3 receptor [2]): 29 nM | IC50 (Cytochrome P450 3A4): > 30 µM | IC50 (Cytochrome P450 2C19): > 30 µM | Vd [27]: 3.5 L/kg

Reference: ChEMBL document CHEMBL1932917, “4,5-dihydropyridazin-3-one derivatives as histamine H₃ receptor inverse agonists” (Bioorg Med Chem Lett, 2012)
